Laboratory results reported in patent US8337835B2, “Use of an endogenous ligand for peroxisome proliferator activated receptor alpha to treat liver disorders” (priority 2009, dated 2012).

Legend:
PPARα = target: T1, PPARα (Mus musculus, UniProt P23204); assay: In vivo competitive inhibition: displacement of 16:0/18:1-GPC (m/z 766) from FLAG-tagged PPARα, ESI/MS; settings: 50 μg/g intraperitoneal; chow and zero fat diet fed WT mice on PPARα null background with AdFLAG-PPARα; 0-60 min
T1 construct: expressed in transfected cells; host or cells: liver of chow- or ZFD-fed WT mice on a PPARα null background, infected with AdFLAG-PPARα adenovirus
T1 sequence (P23204 1-468): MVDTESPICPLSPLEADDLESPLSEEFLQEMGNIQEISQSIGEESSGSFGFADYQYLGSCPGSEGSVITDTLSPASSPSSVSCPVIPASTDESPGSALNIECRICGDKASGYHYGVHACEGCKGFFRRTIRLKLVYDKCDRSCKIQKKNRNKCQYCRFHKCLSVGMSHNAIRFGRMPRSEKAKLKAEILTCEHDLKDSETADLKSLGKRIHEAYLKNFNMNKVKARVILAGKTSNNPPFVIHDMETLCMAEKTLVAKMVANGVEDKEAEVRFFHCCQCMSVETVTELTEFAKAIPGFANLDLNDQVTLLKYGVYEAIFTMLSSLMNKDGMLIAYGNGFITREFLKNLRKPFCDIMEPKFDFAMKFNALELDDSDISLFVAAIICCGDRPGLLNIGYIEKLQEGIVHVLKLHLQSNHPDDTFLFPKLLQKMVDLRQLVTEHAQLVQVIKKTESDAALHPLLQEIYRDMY
Description: Freshly harvested livers (˜100 mg) were gently homogenized in ice-cold non-detergent hypotonic buffer (10 mM HEPES, pH 7.9, 1.5 mM MgCl2, 10 mM KCl, 100 mM DTT, protease and phosphatase inhibitor cocktail). After an additional 10 min incubation in the hypotonic buffer, the homogenate was centrifuged at 8000×g at 4° C. for 20 min. The pellet was homogenized in ice-cold extraction buffer (10 mM HEPES, pH 7.9, 1.5 mM MgCl2, 0.21 M NaCl, 0.2 mM EDTA, 25% (v/v) glycerol, 100 mM DTT, protease and phosphatase inhibitor cocktail), placed on a rotating shaker at 4° C. for 1 h, then centrifuged at 18,000×g for 10 min. […]
The in vivo displacement of the endogenous PPARα ligand 16:0/18:1-GPC by the PPARα agonist Wy14,643 was assessed by electrospray ionization mass spectrometry (ESI/MS) Analysis. […] Wy14,643 in chow fed WT mice on a PPARα null background injected with AdFLAG-PPARα adenovirus are shown in FIGS. 4A-D. Similarly, representative ESI/MS scans of GPC species at different time intervals following an intraperitoneal injection of 50 μg/g Wy14,643 in ZFD fed mice are shown in FIGS. 4E-H. Insets in FIGS. 4A-H depict the ion at m/z 766 (16:0/18:1-GPC) that is time-dependently competed away with Wy14,643 while quantification of the relative abundance of the peak abundance of m/z 766 ion in response to Wy14,643 is shown in FIG. 4I. […]

[1] = system: PPARα target gene acyl CoA oxidase; assay: Establishing conditions (dose, rate) for portal vein infusion; type: in vivo, mouse
Description: We therefore extrapolated the doses in mice taking into account the direct intraportal route, and tested doses ranging from 0.1 mg/day to 10 mg/day based on a 25 g mouse. […] Optimal dosing frequency was determined based on kinetic data obtained by injection of ^14C-labeled 16:0/18:1-GPC (American Radiochemicals, St. Louis) into the portal vein of […] mice as shown in FIG. 12. Following a single injection into the portal vein (1.9 μCi/mouse), total counts from both cytoplasmic and nuclear fractions were obtained (FIG. 12A). Using standard pharmacokinetic equations (Hardman et al., 2001), a dosing interval of 8.7 hours was calculated, indicating an optimal dosing frequency of three times a day.

SMILES	displacement of 16:0/18:1-GPC (m/z 766) from PPARα (PPARα)	lowest dose causing increased expression of the PPARα target gene acyl CoA oxidase ([1]; intraportal, rapid infusion (<1 min), mice) [mg/kg]	solubility of infusate ([1]; larger doses and slower infusion rates)	lethality ([1]; larger doses and slower infusion rates, portal vein)
Cc1cccc(Nc2cc(Cl)nc(SCC(=O)O)n2)c1C [Wy14,643, 4-Chloro-6-(2,3-xylidino)-2-pyrimidinylthioacetic acid]	displaced from PPARα within minutes			
CCCCCCCC/C=C\CCCCCCCC(=O)O[C@H](COC(=O)CCCCCCCCCCCCCCC)COP(=O)([O-])OCC[N+](C)(C)C [16:0/18:1-GPC, 1-palmitoyl-2-oleoyl-sn-glycerol-3-phosphocholine]		10	poor solubility	death due to portal vein thrombosis
